Data taken from BigSolDB 2.1.

COc1cc(Cl)c(OC)cc1N
Conditions	solubility (mole fraction)
in ethanol, 279.35 K	0.00274
in ethanol, 282.65 K	0.00327
in ethanol, 286.45 K	0.00386
in ethanol, 289.55 K	0.00447
in ethanol, 292.15 K	0.00497
in ethanol, 295.55 K	0.00579
in ethanol, 299.45 K	0.00695
in ethanol, 303.05 K	0.00821
in ethanol, 305.85 K	0.00938
in ethanol, 310.25 K	0.0115
in ethanol, 313.95 K	0.0137
in ethanol, 317.65 K	0.0164
in ethanol, 321.55 K	0.0201
in ethanol, 325.05 K	0.024
in ethanol, 328.65 K	0.0289
in ethanol, 331.55 K	0.0344
in ethanol, 335.25 K	0.0416
in m-xylene, 277.35 K	0.00495
in m-xylene, 281.85 K	0.00615
in m-xylene, 286.05 K	0.00739
in m-xylene, 289.95 K	0.00877
in m-xylene, 292.85 K	0.0103
in m-xylene, 296.25 K	0.012
in m-xylene, 299.35 K	0.0139
in m-xylene, 302.35 K	0.016
in m-xylene, 305.55 K	0.0186
in m-xylene, 309.25 K	0.0219
in m-xylene, 312.75 K	0.0262
in m-xylene, 316.95 K	0.0318
in m-xylene, 321.25 K	0.0386
in m-xylene, 325.05 K	0.0466
in m-xylene, 328.65 K	0.0561
in m-xylene, 332.35 K	0.0669
in m-xylene, 335.65 K	0.0791
in methanol, 278.05 K	0.00282
in methanol, 282.45 K	0.00342
in methanol, 285.85 K	0.00399
in methanol, 289.45 K	0.00465
in methanol, 292.75 K	0.0054
in methanol, 296.65 K	0.00634
in methanol, 299.85 K	0.00734
in methanol, 303.35 K	0.00852
in methanol, 306.55 K	0.0099
in methanol, 309.95 K	0.0115
in methanol, 313.45 K	0.0134
in methanol, 316.45 K	0.0156
in methanol, 319.35 K	0.0181
in methanol, 322.45 K	0.0212
in methanol, 325.45 K	0.0247
in methanol, 328.85 K	0.0289
in o-xylene, 278.25 K	0.0058
in o-xylene, 281.85 K	0.00699
in o-xylene, 285.55 K	0.00831
in o-xylene, 289.15 K	0.00989
in o-xylene, 292.75 K	0.0117
in o-xylene, 296.05 K	0.0136
in o-xylene, 299.45 K	0.0158
in o-xylene, 303.25 K	0.0184
in o-xylene, 307.05 K	0.0214
in o-xylene, 310.35 K	0.0252
in o-xylene, 313.65 K	0.0298
in o-xylene, 317.55 K	0.0358
in o-xylene, 321.85 K	0.0443
in o-xylene, 326.25 K	0.0549
in o-xylene, 330.95 K	0.0677
in o-xylene, 335.05 K	0.0816
in p-xylene, 288.55 K	0.00855
in p-xylene, 291.65 K	0.00985
in p-xylene, 294.95 K	0.0115
in p-xylene, 298.45 K	0.0134
in p-xylene, 302.25 K	0.0158
in p-xylene, 306.05 K	0.0186
in p-xylene, 309.65 K	0.022
in p-xylene, 313.55 K	0.026
in p-xylene, 317.65 K	0.031
in p-xylene, 321.25 K	0.0371
in p-xylene, 325.25 K	0.0447
in p-xylene, 329.55 K	0.0539
in p-xylene, 334.25 K	0.0651
in toluene, 277.65 K	0.0065
in toluene, 281.95 K	0.00831
in toluene, 286.05 K	0.0101
in toluene, 290.05 K	0.0126
in toluene, 293.35 K	0.0146
in toluene, 296.45 K	0.0169
in toluene, 299.65 K	0.0194
in toluene, 302.75 K	0.0224
in toluene, 306.25 K	0.0263
in toluene, 309.95 K	0.0312
in toluene, 313.75 K	0.0373
in toluene, 317.65 K	0.0447
in toluene, 321.75 K	0.0536
in toluene, 325.45 K	0.0641
in toluene, 328.95 K	0.0761
in toluene, 332.25 K	0.0894
in toluene, 335.35 K	0.104

COc1cc([N+](=O)[O-])c(OC)cc1Cl
Conditions	solubility (mole fraction)
in ethanol, 276.95 K	0.00042
in ethanol, 281.05 K	0.000522
in ethanol, 285.25 K	0.000644
in ethanol, 288.25 K	0.000757
in ethanol, 291.45 K	0.000892
in ethanol, 295.75 K	0.00109
in ethanol, 300.15 K	0.00135
in ethanol, 305.55 K	0.00172
in ethanol, 310.45 K	0.00219
in ethanol, 314.85 K	0.00274
in ethanol, 319.65 K	0.0034
in ethanol, 323.65 K	0.00409
in ethanol, 327.25 K	0.0048
in ethanol, 330.25 K	0.00558
in ethanol, 333.35 K	0.00649
in ethanol, 336.65 K	0.00764
in ethanol, 340.45 K	0.00921
in m-xylene, 277.05 K	0.00728
in m-xylene, 279.95 K	0.00788
in m-xylene, 283.15 K	0.00872
in m-xylene, 286.15 K	0.00994
in m-xylene, 290.05 K	0.0118
in m-xylene, 295.35 K	0.0146
in m-xylene, 300.75 K	0.0178
in m-xylene, 305.05 K	0.0209
in m-xylene, 308.85 K	0.024
in m-xylene, 312.15 K	0.0272
in m-xylene, 315.45 K	0.0305
in m-xylene, 318.55 K	0.0341
in m-xylene, 321.75 K	0.0382
in m-xylene, 325.05 K	0.0432
in m-xylene, 328.45 K	0.049
in m-xylene, 332.05 K	0.0561
in m-xylene, 335.35 K	0.0645
in m-xylene, 338.95 K	0.0747
in methanol, 279.35 K	0.000449
in methanol, 282.75 K	0.000517
in methanol, 285.55 K	0.000598
in methanol, 288.85 K	0.000716
in methanol, 293.45 K	0.000895
in methanol, 297.55 K	0.00109
in methanol, 301.75 K	0.00131
in methanol, 305.85 K	0.00156
in methanol, 309.55 K	0.00187
in methanol, 313.25 K	0.00223
in methanol, 316.85 K	0.00266
in methanol, 320.75 K	0.00318
in methanol, 324.85 K	0.00383
in methanol, 329.05 K	0.00464
in o-xylene, 277.75 K	0.00864
in o-xylene, 280.45 K	0.00956
in o-xylene, 283.55 K	0.0107
in o-xylene, 287.05 K	0.0123
in o-xylene, 291.45 K	0.0145
in o-xylene, 296.25 K	0.0174
in o-xylene, 301.25 K	0.0209
in o-xylene, 305.65 K	0.0245
in o-xylene, 309.45 K	0.0283
in o-xylene, 313.25 K	0.0323
in o-xylene, 316.85 K	0.0367
in o-xylene, 320.55 K	0.0418
in o-xylene, 323.95 K	0.0476
in o-xylene, 327.55 K	0.0544
in o-xylene, 331.35 K	0.0624
in o-xylene, 335.25 K	0.0719
in o-xylene, 339.35 K	0.0831
in p-xylene, 289.55 K	0.0126
in p-xylene, 293.65 K	0.0145
in p-xylene, 297.55 K	0.0168
in p-xylene, 301.95 K	0.0198
in p-xylene, 306.15 K	0.023
in p-xylene, 310.25 K	0.0266
in p-xylene, 313.85 K	0.0304
in p-xylene, 317.55 K	0.0347
in p-xylene, 321.15 K	0.0396
in p-xylene, 324.65 K	0.0454
in p-xylene, 328.45 K	0.0522
in p-xylene, 332.35 K	0.0604
in p-xylene, 336.65 K	0.07
in toluene, 277.45 K	0.00969
in toluene, 280.55 K	0.0107
in toluene, 283.85 K	0.0122
in toluene, 287.85 K	0.0145
in toluene, 293.05 K	0.0178
in toluene, 297.95 K	0.0211
in toluene, 301.85 K	0.0241
in toluene, 305.35 K	0.0273
in toluene, 308.75 K	0.0308
in toluene, 312.35 K	0.0347
in toluene, 315.85 K	0.0393
in toluene, 319.45 K	0.045
in toluene, 323.45 K	0.052
in toluene, 327.75 K	0.061
in toluene, 332.75 K	0.0726
in toluene, 337.35 K	0.0852
